Test results published in ChEMBL document CHEMBL6078677, “Discovery and optimization of tetrahydroacridine derivatives as a novel class of antibiotics against multidrug-resistant Gram-positive pathogens by targeting type I signal peptidase and disrupting bacterial membrane” (Eur J Med Chem, 2025).
Converted amounts (≈) assume the structure as drawn. The source made the active and inactive calls. The rule behind the calls is not given here.

Experiments:
[1] = Hemolytic activity in Kunming mouse erythrocytes assessed as hemolysis at 4 times of MIC measured after 1 hrs by absorbance based assay relative to control; format: toxicity, cell-based, Erythrocyte; conditions: read-out: Activity
Streptococcus agalactiae = assay: Antimicrobial activity against Streptococcus agalactiae DL03 harboring erythromycin-resistance rRNA methylase B assessed as inhibition of visible growth of bacteria incubated for 20 hrs by broth microdilution method; format: functional
Staphylococcus aureus [2] = assay: Antimicrobial activity against Staphylococcus aureus ATCC 29213 assessed as inhibition of visible growth of bacteria incubated for 20 hrs by broth microdilution method; format: functional
[3] = Hemolytic activity in Kunming mouse erythrocytes assessed as hemolysis at 2 times of MIC measured after 1 hrs by absorbance based assay relative to control; format: toxicity, cell-based, Erythrocyte; conditions: read-out: Activity
Streptococcus pyogenes = assay: Antimicrobial activity against Streptococcus pyogenes DL02 harboring erythromycin-resistance rRNA methylase B assessed as inhibition of visible growth of bacteria incubated for 20 hrs by broth microdilution method; format: functional
Enterococcus faecalis [4] = assay: Antimicrobial activity against Enterococcus faecalis J2 harboring erythromycin-resistance rRNA methylase B and oxazolidinone phenicol transferable resistance gene assessed as inhibition of visible growth of bacteria incubated for 20 hrs by broth microdilution method; format: functional
Pseudomonas aeruginosa [5] = assay: Antimicrobial activity against Pseudomonas aeruginosa PA14 assessed as inhibition of visible growth of bacteria incubated for 20 hrs by broth microdilution method; format: functional
[6] = Cytotoxicity against human Caco-2 cells assessed as cell viability at 1 time of MIC incubated for 48 hrs by CCK8 assay (reference value: 99.54 %); format: toxicity, cell-based; conditions: read-out: Activity
Enterococcus faecium [7] = assay: Antimicrobial activity against Enterococcus faecium MC38 harboring erythromycin resistance rRNA methylase B and oxazolidinone-phenicol transferable resistance gene assessed as inhibition of visible growth of bacteria incubated for 20 hrs by broth microdilution method; format: functional
Acinetobacter baumannii [8] = assay: Antimicrobial activity against Acinetobacter baumannii AB11 assessed as inhibition of visible growth of bacteria incubated for 20 hrs by broth microdilution method; format: functional
[9] = Cytotoxicity against human Caco-2 cells assessed as cell viability at 2 times of MIC incubated for 48 hrs by CCK8 assay (reference value: 99.54 %); format: toxicity, cell-based; conditions: read-out: Activity
Enterococcus faecium [10] = assay: Antimicrobial activity against Enterococcus faecium QF31 harboring erythromycin resistance rRNA methylase B and chloramphenicol-florfenicol resistance methylase assessed as inhibition of visible growth of bacteria incubated for 20 hrs by broth microdilution method; format: functional
[11] = Cytotoxicity against human Caco-2 cells assessed as cell viability at 4 times of MIC incubated for 48 hrs by CCK8 assay (reference value: 99.54 %); format: toxicity, cell-based; conditions: read-out: Activity
Enterococcus faecalis [12] = assay: Antimicrobial activity against Enterococcus faecalis JH2-2 assessed as inhibition of visible growth of bacteria incubated for 20 hrs by broth microdilution method; format: functional
[13] = Hemolytic activity in Kunming mouse erythrocytes assessed as hemolysis at 16 times of MIC measured after 1 hrs by absorbance based assay relative to control; format: toxicity, cell-based, Erythrocyte; conditions: read-out: Activity
Staphylococcus aureus [14] = assay: microbe, parasite or virus in culture; format: functional; conditions: M147-2, time 20 hrs
Description: Antimicrobial activity against Staphylococcus aureus M147-2 harboring erythromycin resistance rRNA methylase B, tetracycline efflux protein L and chloramphenicol-florfenicol resistance methylase assessed as inhibition of visible growth of bacteria incubated for 20 hrs by broth microdilution method

Acinetobacter baumannii [15] = assay: Antimicrobial activity against Acinetobacter baumannii 7979 assessed as inhibition of visible growth of bacteria incubated for 20 hrs by broth microdilution method; format: functional
Pseudomonas aeruginosa [16] = assay: Antimicrobial activity against Pseudomonas aeruginosa PA01 assessed as inhibition of visible growth of bacteria incubated for 20 hrs by broth microdilution method; format: functional
Streptococcus suis [17] = assay: Antimicrobial activity against Streptococcus suis P1/7 assessed as inhibition of visible growth of bacteria incubated for 20 hrs by broth microdilution method; format: functional
Staphylococcus aureus [18] = assay: Bactericidal activity against Staphylococcus aureus ATCC 29213 assessed as decrease in bacterial number measured within 12 hrs by time-kill kinetics assay; format: functional, organism-based
[19] = Cytotoxicity against human HEp-2 cells assessed as cell viability at 1 time of MIC incubated for 48 hrs by CCK8 assay (reference value: 100 %); format: toxicity, cell-based; conditions: read-out: Activity
Enterococcus faecalis [20] = assay: microbe, parasite or virus in culture; format: functional; conditions: SF23-1, time 20 hrs
Description: Antimicrobial activity against Enterococcus faecalis SF23-1 harboring erythromycin-resistance rRNA methylase B, tetracycline efflux protein L and chloramphenicol-florfenicol resistance methylase assessed as inhibition of visible growth of bacteria incubated for 20 hrs by broth microdilution method

[21] = Cytotoxicity against human Caco-2 cells assessed as cell viability at 8 times of MIC incubated for 48 hrs by CCK8 assay (reference value: 99.54 %); format: toxicity, cell-based; conditions: read-out: Activity
Escherichia coli = assay: Antimicrobial activity against Escherichia coli ATCC 25922 assessed as inhibition of visible growth of bacteria incubated for 20 hrs by broth microdilution method; format: functional
Enterococcus faecium [22] = assay: Antimicrobial activity against Enterococcus faecium HFY01 assessed as inhibition of visible growth of bacteria incubated for 20 hrs by broth microdilution method; format: functional
[23] = Cytotoxicity against human HEp-2 cells assessed as cell viability at 2 times of MIC incubated for 48 hrs by CCK8 assay (reference value: 100 %); format: toxicity, cell-based; conditions: read-out: Activity
[24] = Cytotoxicity against human HEp-2 cells assessed as cell viability at 8 times of MIC incubated for 48 hrs by CCK8 assay (reference value: 100 %); format: toxicity, cell-based; conditions: read-out: Activity
Enterococcus faecalis [25] = assay: Antimicrobial activity against Enterococcus faecalis ES01 harboring erythromycin-resistance rRNA methylase B and vanB-type vancomycin-resistance locus assessed as inhibition of visible growth of bacteria incubated for 20 hrs by broth microdilution method; format: functional
Staphylococcus aureus [26] = assay: Bactericidal activity against Staphylococcus aureus ATCC 29213 assessed as bacterial eradication at 4 times of MIC measured after 24 hrs by time-kill kinetics assay relative to control; format: functional
[27] = Cytotoxicity against human HEp-2 cells assessed as cell viability at 4 times of MIC incubated for 48 hrs by CCK8 assay (reference value: 100 %); format: toxicity, cell-based; conditions: read-out: Activity
Salmonella enteritidis = assay: Antimicrobial activity against Salmonella enteritis S1 assessed as inhibition of visible growth of bacteria incubated for 20 hrs by broth microdilution method; format: functional, Salmonella enterica subsp. enterica serovar Enteritidis; conditions: Salmonella enterica
Streptococcus suis [28] = assay: microbe, parasite or virus in culture; format: functional; conditions: SH0918, time 20 hrs
Description: Antimicrobial activity against Streptococcus suis SH0918 harboring erythromycin-resistance rRNA methylase B, tetracycline efflux protein O and oxazolidinone phenicol transferable resistance gene assessed as inhibition of visible growth of bacteria incubated for 20 hrs by broth microdilution method

Klebsiella pneumoniae = assay: Antimicrobial activity against Klebsiella pneumoniae 9-1 assessed as inhibition of visible growth of bacteria incubated for 20 hrs by broth microdilution method; format: functional
Staphylococcus aureus [29] = assay: Bactericidal activity against Staphylococcus aureus ATCC 29213 assessed as bacterial killing at 8 times of MIC measured within 12 hrs by time-kill kinetics assay; format: functional, organism-based
Staphylococcus aureus [30] = assay: Drug resistance, ratio of MIC for Staphylococcus aureus ATCC 29213 measured after 28 days to MIC for Staphylococcus aureus ATCC 29213 measured after 20 hrs; format: functional
[31] = Hemolytic activity in Kunming mouse erythrocytes assessed as hemolysis at 8 times of MIC measured after 1 hrs by absorbance based assay relative to control; format: toxicity, cell-based, Erythrocyte; conditions: read-out: Activity
Staphylococcus aureus [32] = assay: Antimicrobial activity against Staphylococcus aureus YZSA-21 harboring erythromycin resistance rRNA methylase C assessed as inhibition of visible growth of bacteria incubated for 20 hrs by broth microdilution method; format: functional
[33] = Hemolytic activity in Kunming mouse erythrocytes measured after 1 hrs by absorbance based assay; format: toxicity, cell-based, Erythrocyte
[34] = Cytotoxicity against human HEp-2 cells assessed as cell viability at 16 times of MIC incubated for 48 hrs by CCK8 assay (reference value: 100 %); format: toxicity, cell-based; conditions: read-out: Activity
[35] = Cytotoxicity against human Caco-2 cells assessed as cell viability at 16 times of MIC incubated for 48 hrs by CCK8 assay (reference value: 99.54 %); format: toxicity, cell-based; conditions: read-out: Activity
Staphylococcus aureus [36] = assay: Antimicrobial activity against Staphylococcus aureus YZSA-15 harboring erythromycin resistance rRNA methylase C and vancomycin resistance locus assessed as inhibition of visible growth of bacteria incubated for 20 hrs by broth microdilution method; format: functional
Staphylococcus aureus [37] = assay: microbe, parasite or virus in culture; format: functional; conditions: M92-1, time 20 hrs
Description: Antimicrobial activity against Staphylococcus aureus M92-1 harboring erythromycin resistance rRNA methylase B, tetracycline efflux protein L and oxazolidinone-phenicol transferable resistance gene assessed as inhibition of visible growth of bacteria incubated for 20 hrs by broth microdilution method

[38] = Hemolytic activity in Kunming mouse erythrocytes assessed as hemolysis at 1 time of MIC measured after 1 hrs by absorbance based assay relative to control; format: toxicity, cell-based, Erythrocyte; conditions: read-out: Activity
Staphylococcus aureus [39] = assay: Antimicrobial activity against Staphylococcus aureus YZSA-24 harboring erythromycin resistance rRNA methylase C and methicillin resistance gene resistance locus assessed as inhibition of visible growth of bacteria incubated for 20 hrs by broth microdilution method; format: functional

COc1ccc2nc3c(c(C(=O)O)c2c1)CC(C)C/C3=C\c1cccc(-c2ccc(Cl)c(C(F)(F)F)c2)c1 (racemic)
hemolysis at 1 h, 4 times of MIC [1]: 1.8%
MIC (Streptococcus agalactiae): 32 µg/mL (≈ 59.5 µM)
MIC (Staphylococcus aureus [2]): 2 µg/mL (≈ 3.72 µM)
hemolysis at 1 h, 2 times of MIC [3]: 0%
MIC (Streptococcus pyogenes): 16 µg/mL (≈ 29.7 µM)
MIC (Enterococcus faecalis [4]): 8 µg/mL (≈ 14.9 µM)
MIC (Pseudomonas aeruginosa [5]): > 128 µg/mL
viability at 48 h, 1 time of MIC [6]: 89.6%
MIC (Enterococcus faecium [7]): 4 µg/mL (≈ 7.44 µM)
MIC (Acinetobacter baumannii [8]): > 128 µg/mL
viability at 48 h, 2 times of MIC [9]: 69.8%
MIC (Enterococcus faecium [10]): 4 µg/mL (≈ 7.44 µM)
viability at 48 h, 4 times of MIC [11]: 51.9%
MIC (Enterococcus faecalis [12]): 4 µg/mL (≈ 7.44 µM)
hemolysis at 1 h, 16 times of MIC [13]: 63.5%
MIC (Staphylococcus aureus [14]): 2 µg/mL (≈ 3.72 µM)
MIC (Acinetobacter baumannii [15]): > 128 µg/mL
MIC (Pseudomonas aeruginosa [16]): > 128 µg/mL
MIC (Streptococcus suis [17]): 8 µg/mL (≈ 14.9 µM)
Activity (Staphylococcus aureus [18]): Dose-dependent-effect
viability at 48 h, 1 time of MIC [19]: 89.8%
MIC (Enterococcus faecalis [20]): 4 µg/mL (≈ 7.44 µM)
viability at 48 h, 8 times of MIC [21]: 36.6%
MIC (Escherichia coli): > 128 µg/mL
MIC (Enterococcus faecium [22]): 4 µg/mL (≈ 7.44 µM)
viability at 48 h, 2 times of MIC [23]: 84.8%
viability at 48 h, 8 times of MIC [24]: 35.5%
MIC (Enterococcus faecalis [25]): 4 µg/mL (≈ 7.44 µM)
Activity (Staphylococcus aureus [26]): 100%
viability at 48 h, 4 times of MIC [27]: 66%
MIC (Salmonella enteritidis): > 128 µg/mL
MIC (Streptococcus suis [28]): 16 µg/mL (≈ 29.7 µM)
MIC (Klebsiella pneumoniae): > 128 µg/mL
Activity (Staphylococcus aureus [29]): Active
Ratio (Staphylococcus aureus [30]): 4
hemolysis at 1 h, 8 times of MIC [31]: 22.3%
MIC (Staphylococcus aureus [32]): 2 µg/mL (≈ 3.72 µM)
HC50 at 1 h [33]: 25.9 µg/mL
viability at 48 h, 16 times of MIC [34]: 2.42%
viability at 48 h, 16 times of MIC [35]: 5.84%
MIC (Staphylococcus aureus [36]): 2 µg/mL (≈ 3.72 µM)
MIC (Staphylococcus aureus [37]): 2 µg/mL (≈ 3.72 µM)
hemolysis at 1 h, 1 time of MIC [38]: 0%
MIC (Staphylococcus aureus [39]): 2 µg/mL (≈ 3.72 µM)
